# US20260347336A1, “PRODRUGS, FORMULATIONS AND METHODS THEREOF” (OCULAR THERAPEUTIX, INC., priority 2022, published 2026)
# Columns and labels:
# [1] = Solubility of axitinib and prodrug in phosphate buffer saline pH 7.4, 24 hour at 22 °C (Example 2); assay type: physicochemical
# Method: Solubility testing was performed with the following test items and conditions: • Test items: axitinib (99.99% purity by HPLC); axitinib-N-mPEG-succinoyloxymethyl prodrug (93.6% purity by HPLC) • Test media: phosphate buffer saline pH 7.4 • Incubation condition: 24 hour at 22 °C with continuous shaking • Test concentration: 1 mg/mL • Data analysis: Solubility of test item was determined by HPLC analysis with calibration curve
# [2] = Stability in phosphate buffer saline (Example 8); assay type: physicochemical; details: PBS, pH-7.40; for remaining at 24 h / remaining at 72 h / remaining at 168 h: phosphate buffer saline, pH 7.4, read-out: % remaining compared to Day 0; for remaining at 24 h: Day 1; for remaining at 72 h: Day 3; for remaining at 168 h: Day 7
# Method: Axitinib prodrugs of the present invention were tested for stability in phosphate buffer saline (PBS, pH-7.40).
# [3] = cited from earlier work
# [4] = Solubility of axitinib prodrugs in phosphate buffer saline (Example 7); assay type: physicochemical; details: phosphate buffer saline (PBS, pH-7.40)
# Method: Axitinib prodrugs of the present invention were tested for solubility in phosphate buffer saline (PBS, pH-7.40).
# [5] = Particle size after micronization (Example 6); assay type: physicochemical; details: micronized
# From the text: The micronization of the axitinib-N-m (PEG)2-oxymethyl prodrug obtained in Example 6 in a dry dispersion was D90=12.4 μm; D50=3.6 μm and D10=0.6 μm and dispersed in water was D90=12.2 μm; D50=5.2 μm and D10=1.1 μm.
# [6] = phosphate buffer saline pH 7.4, 24 hour at 22 °C, continuous shaking, test concentration 1 mg/mL, HPLC
% remaining compared to Day 0 [2] [%],remaining at 24 h [2] [%],remaining at 72 h [2] [%],remaining at 168 h [2] [%],"solubility ([4]; pH 7.4, read-out: Solubility) [µg/mL]",solubility [4],Molecule,also measured
100.00,96.7,96.2,91.8,–,–,"CNC(=O)c1ccccc1Sc1ccc2c(/C=C/c3ccccn3)n[nH]c2c1 [Axitinib, axitinib, reference compound]","solubility at 24 h [1, 6]: < 0.78 µg/mL; literature reported solubility [3]: about 0.2 mcg/mL"
–,–,–,–,217,–,CNC(=O)c1ccccc1Sc1ccc2c(/C=C/c3ccccn3)nn(COC(=O)CCC(=O)O)c2c1 [Axitinib-N-Succinoyloxymethyl Prodrug],–
100.00,38.8,6.7,5,–,Not Soluble,CNC(=O)c1ccccc1Sc1ccc2c(/C=C/c3ccccn3)nn(COC(=O)CCOC)c2c1 [Axitinib-N-m(PEG)1-oxymethyl prodrug],–
100.00,45.9,30.5,16.9,1.1,–,CNC(=O)c1ccccc1Sc1ccc2c(/C=C/c3ccccn3)nn(COC(=O)CCOCCOC)c2c1 [Axitinib-N-m(PEG)2-oxymethyl prodrug],D10 ([5]; dispersed in water): 1.1 μm; D50 ([5]; dispersed in water): 5.2 μm; D90 ([5]; dispersed in water): 12.2 μm; D10 ([5]; dry dispersion): 0.6 μm; D50 ([5]; dry dispersion): 3.6 μm; D90 ([5]; dry dispersion): 12.4 μm
100.00,53.9,24,12.7,6.16,–,CNC(=O)c1ccccc1Sc1ccc2c(/C=C/c3ccccn3)nn(COC(=O)CCOCCOCCOC)c2c1 [Axitinib-N-m(PEG)3-oxymethyl prodrug],–
–,–,–,–,–,99.37 µg/mL,axitinib-N-mPEG-succinoyloxymethyl [N-mPEG succinoyloxymethyl Prodrug],"solubility [1, 6]: 99.37 µg/mL; solubility enhancement of prodrug ([1]; versus axitinib): ~ 500 ×"
